In BigSolDB 2.1:

CN(C)/C=C/C(=O)c1cccnc1
solubility (mole fraction)
Details | in 1,4-dioxane | in DMF | in THF | in acetone | in cyclohexane | in ethyl acetate | in methanol | in n-propanol
278.15 K | – | 0.0897 | 0.021 | 0.00872 | – | 0.0131 | 0.0255 | 0.0185
283.15 K | – | 0.112 | 0.0216 | 0.00917 | 0.00098 | 0.014 | 0.0278 | 0.0207
288.15 K | 0.0331 | 0.142 | 0.0225 | 0.00987 | 0.00114 | 0.0152 | 0.0304 | 0.0233
293.15 K | 0.0357 | 0.175 | 0.0239 | 0.0108 | 0.00147 | 0.0163 | 0.034 | 0.0261
298.15 K | 0.0388 | 0.209 | 0.0257 | 0.0117 | 0.00183 | 0.018 | 0.0379 | 0.0298
303.15 K | 0.0427 | 0.249 | 0.0279 | 0.0127 | 0.00228 | 0.02 | 0.0427 | 0.0331
308.15 K | 0.048 | 0.293 | 0.0304 | 0.0138 | 0.00284 | 0.0228 | 0.0476 | 0.0371
313.15 K | 0.054 | 0.348 | 0.033 | 0.0149 | 0.0034 | 0.0259 | 0.0533 | 0.0408
318.15 K | 0.061 | 0.408 | 0.0358 | 0.0164 | 0.00408 | 0.0295 | 0.0588 | 0.0465
323.15 K | 0.0692 | 0.482 | 0.0391 | 0.0178 | 0.00493 | 0.0338 | 0.0648 | 0.0529
328.15 K | 0.0779 | 0.588 | 0.0428 | 0.0197 | 0.0061 | 0.0382 | 0.0715 | 0.0604
